Laboratory results as given in PubChem BioAssay (NCI).
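Protocol summary: plate cells (96-well), add compound at 5 concentrations, incubate 48 h, interpolate endpoints linearly. Here, GI50 denotes the concentration required for 50% inhibition of growth. The concentration for full growth arrest is given as TGI.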

Experiments:
Test in all cases: NCI anticancer screen, dose series, 48 h
NCI-H460 lung = test system: NCI-H460 lung
SK-MEL-2 melanoma = test system: SK-MEL-2 melanoma
HCT-15 colon = test system: HCT-15 colon
COLO 205 colon = test system: COLO 205 colon
LOX IMVI melanoma = test system: LOX IMVI melanoma
UACC-62 melanoma = test system: UACC-62 melanoma
SK-OV-3 ovarian = test system: SK-OV-3 ovarian
HCT-116 colon = test system: HCT-116 colon
A498 renal = test system: A498 renal
HS 578T breast = test system: HS 578T breast

| SMILES | GI50 (NCI-H460 lung) | TGI (NCI-H460 lung) | GI50 (SK-MEL-2 melanoma) | TGI (SK-MEL-2 melanoma) | GI50 (HCT-15 colon) | TGI (HCT-15 colon) | GI50 (COLO 205 colon) | TGI (COLO 205 colon) | GI50 (LOX IMVI melanoma) | TGI (LOX IMVI melanoma) | GI50 (UACC-62 melanoma) | TGI (UACC-62 melanoma) | GI50 (SK-OV-3 ovarian) | TGI (SK-OV-3 ovarian) | GI50 (HCT-116 colon) | TGI (HCT-116 colon) | GI50 (A498 renal) | TGI (A498 renal) | GI50 (HS 578T breast) | TGI (HS 578T breast) |
| --- | --- | --- | --- | --- | --- | --- | --- | --- | --- | --- | --- | --- | --- | --- | --- | --- | --- | --- | --- | --- |
| COc1cc(OCc2cccc(-c3ccc(C(O)c4nccs4)cc3)c2C)cc(OC)c1C=O (stereo not drawn) | 1.09 µM | 10.7 µM | 2.58 µM | 8.53 µM | 1.79 µM | 4.4 µM | 2.64 µM | 8.27 µM | 1.79 µM | 4.08 µM | 0.349 µM | 1.92 µM | 6.07 µM | 20.9 µM | 1.44 µM | 4.51 µM | 0.103 µM | 0.238 µM | 3.08 µM | 20.5 µM |
| COc1cc(-c2oc(=O)ccc2C#Cc2ccccn2)cc(OC)c1OC | 2.6 µM | > 54.2 µM | 4.15 µM | > 100 µM | 1.54 µM | > 100 µM | 3.72 µM | > 30.9 µM | 4.38 µM | > 100 µM | 1.82 µM | > 20.1 µM | 3.43 µM | 97.7 µM | 2.75 µM | > 100 µM | 3.81 µM | > 48.3 µM | 2.98 µM | > 24 µM |
| CN1CCN(C2CCN(C(=O)Nc3cc(Oc4ccc(NC(=O)C5(C(=O)Nc6ccc(F)cc6)CC5)c(F)c4)ccn3)CC2)CC1 | 1.44 µM | > 10 µM | 0.744 µM | 2.18 µM | 2.04 µM | > 10 µM | 0.977 µM | > 2.19 µM | 1.04 µM | > 10 µM | 0.771 µM | > 2.02 µM | 1.3 µM | > 10 µM | 1.05 µM | > 10 µM | 0.315 µM | 1.38 µM | 0.688 µM | > 2.52 µM |
| CC1(C)S[C@@H]2[C@H](NC(=O)C3(N)CCCCC3)C(=O)N2[C@H]1C(=O)O | – | > 100 µM | – | > 100 µM | – | > 100 µM | – | > 100 µM | – | > 100 µM | – | > 100 µM | – | > 100 µM | – | > 100 µM | – | > 100 µM | – | > 100 µM |
| COC(=O)c1ccc2c(c1)nc(NC(=O)c1ccccc1)n2CCCc1ccccc1 | 1.22 µM | > 100 µM | 5.58 µM | > 100 µM | 1.89 µM | > 100 µM | 3.89 µM | > 100 µM | 2.63 µM | > 100 µM | 2.49 µM | > 27 µM | 7.63 µM | > 100 µM | 3.06 µM | > 100 µM | 16 µM | > 100 µM | 30.2 µM | > 100 µM |
| COc1cccc(F)c1C(=O)c1cnc(NC2CCN(S(C)(=O)=O)CC2)nc1N | 0.862 µM | > 25 µM | 3.43 µM | 9.94 µM | 3.63 µM | > 25 µM | 1.49 µM | 5.69 µM | 1.85 µM | > 25 µM | 2.66 µM | 9.42 µM | 13 µM | > 25 µM | 1.34 µM | > 25 µM | 3.58 µM | 8.72 µM | 3.83 µM | 15.9 µM |
| COC(=O)C1c2cc3c(cc2C(OC2OC(C)C(OC)C(C)(OC)C2OC)CC1(C)O)C(=O)c1c(O)cc2c(c1C3=O)OC1OC2(C)C(O)C([N+](C)(C)[O-])C1O (stereo not drawn) | – | – | – | 0.641 µM | – | > 100 µM | – | 0.293 µM | – | 3.38 µM | – | 0.311 µM | – | > 64.1 µM | – | > 100 µM | – | 3.7 µM | – | 25.6 µM |
| Cn1c(I)c(C#CCO[Si](C)(C)C(C)(C)C)c(=O)[nH]c1=O | 53.8 µM | > 100 µM | 13.9 µM | 27.7 µM | 13.5 µM | 27.6 µM | 6.41 µM | 20 µM | 1.83 µM | 4.42 µM | 17.2 µM | 32.2 µM | > 100 µM | > 100 µM | 14.3 µM | 28.5 µM | 19.9 µM | 38 µM | 20.1 µM | 43.4 µM |
| COc1cc(Nc2ncccc2C(=O)NCc2cn(Cc3cccc(Oc4ccccc4)c3)nn2)cc(OC)c1 | 3.98 µM | > 100 µM | 6.68 µM | > 100 µM | 3.89 µM | > 100 µM | 4.12 µM | > 100 µM | 5.1 µM | > 100 µM | 3.68 µM | > 100 µM | 4.33 µM | > 100 µM | 4.34 µM | > 100 µM | 4.18 µM | > 100 µM | > 100 µM | > 100 µM |
| CC(C)NC(=O)OCc1c(COC(=O)NC(C)C)c(-c2cc[n+](COC(=O)C3CC3)cc2)n2c1CCC2 | – | > 100 µM | – | > 100 µM | – | > 100 µM | – | > 100 µM | – | > 100 µM | – | > 100 µM | – | > 100 µM | – | > 100 µM | – | > 100 µM | – | > 100 µM |
| CC(=O)N=C1N(/C=C2\C(=O)Oc3ccccc3C2=O)C(=O)/C(=C/c2cccc(Cl)c2Cl)N1C | – | – | – | 60.4 µM | – | 32.5 µM | – | 74 µM | – | > 100 µM | – | > 100 µM | – | 39.4 µM | – | > 100 µM | – | 21.1 µM | – | 26.1 µM |
| O=C(Nc1ccc2ncccc2c1)Nc1ccc2ncccc2c1 | – | > 100 µM | – | > 100 µM | – | > 100 µM | – | > 100 µM | – | > 100 µM | – | > 100 µM | – | > 100 µM | – | > 100 µM | – | > 100 µM | – | > 100 µM |
| C(=NCCN1CCOCC1)=NC1CCCCC1 | – | > 100 µM | – | > 100 µM | – | > 100 µM | – | > 100 µM | – | > 100 µM | – | > 100 µM | – | > 100 µM | – | > 100 µM | – | > 100 µM | – | > 100 µM |
| C=C1C(=O)OC2CC(C)C(C(CC(C)=O)OC(C)=O)=CCC12 (stereo not drawn) | – | 41.9 µM | – | 40.8 µM | – | 7.96 µM | – | 21.2 µM | – | 18.8 µM | – | 25.4 µM | – | > 100 µM | – | 4.21 µM | – | 39.4 µM | – | > 100 µM |
| Nc1nn2cc(F)cnc2c1C(=O)Nc1cncc(F)c1N1CCC(C(=O)N2CCN(C3COC3)CC2)CC1 | 0.254 µM | 7.2 µM | 0.194 µM | 0.821 µM | 0.165 µM | 4.13 µM | 0.575 µM | > 100 µM | 0.285 µM | 1.55 µM | 0.522 µM | 2.56 µM | 0.243 µM | 6.02 µM | 0.942 µM | > 29.6 µM | 0.181 µM | 0.857 µM | 0.191 µM | 1.48 µM |
